Assay results published in patent publication US12065435B2, “Compounds for the treatment of glycogen storage disorders” (HADASIT MEDICAL RESEARCH SERVICES AND DEVELOPMENT LTD., priority 2017, dated 2024).

Assays:
[1] = tested on: polyglucosan body (PB) in APBD patient-derived fibroblasts; test: High content (image-based) PAS screening assay for polyglucosan bodies; assay type: cell-based, human; conditions: 0, 1, 5, 10 and 50 μM
Procedure: All the steps of the assay were performed automatically using a Freedom Evo 150 liquid handling robot (Tecan). APBD patient-derived fibroblasts were seeded at a density of 800 cells/well in DMEM (Gibco) supplemented with 1 mM sodium pyruvate (Gibco), 1% antibiotics (Biological Industries, Israel) and 5% fetal bovine serum (Hyclone) into 384 well microclear plates (Greiner). The plates were transferred by the robotic arm (RoMa) into an automated incubator (Liconic), integrated with the robotic system, where they were incubated at 37° C. with 5% CO2. Following 24 h incubation, the medium was replaced by the robot using medium supplemented with 10 μM of each screened compound (0.1% DMSO final concentration, all prepared by the robot). The screened compounds were part of the Diverset CL collection purchased from ChemBridge (10,084 out of 50,000 molecules).
Next, these cells were cultured for another 24 h in the automated incubator, and, using the robot, washed them with PBS (Biological Industries, Israel), the cells were fixed with 4% paraformaldehyde (PFA), washed again with PBS, neutralized the previously added PFA by ammonium chloride (Sigma Aldrich), washed with PBS, permeabilized with 0.1% Triton X-100 (Sigma Aldrich), and washed again with PBS.
Following this, a robot was used to treat the fixed cells with 0.5 g/dl diastase (or amylase, Sigma Aldrich) for 5 minutes at 37° C. in the automated incubator, wash with PBS, stained with PAS (Merck), Hoechst 33342 (Sigma Aldrich) and Cell Mask Deep Red (Molecular Probes) and wash with PBS. Images of stained cells were then acquired by the IN Cell Analyzer 2000 (GE Healthcare) and analyzed using the IN Cell Investigator (GE Healthcare) applying an algorithm that quantified the PAS signal within each Cell Mask stained cell.
Images were segmented based on the Cell Mask signal which was linked with the segmentation of the nuclei, employing an empirically established sensitivity and kernel size for allowing the best segmentation. Once these nucleus-cytoplasm complex objects were selected, the software calculated the number of these objects (cell number) as well as the intensity of the PAS signal within each of them. All the assay parameters (including the acquisition exposure times, objective, and the analysis parameters) were kept constant throughout the whole screening campaign for allowing comparison of signals obtained from different batches of assay within the campaign.
The assay was performed as mentioned above, but with compound concentrations of 1, 5, 10, and 50 μM, instead of a constant concentration of 10 μM.
The discarded data was presumably associated with cells affected by toxic compounds. In the remaining data, the measured population mean PB intensity was normalized. Based on a series of images used for training, compounds were considered as positive only where following treatment the normalized PB mean intensity was at least under −1.2 z-score of the scale. Following this approach, 85 potential hits out of the 10,084 screened compounds were selected (0.84%).

recombinant human GS1 = target: T1, recombinant human GS1 (Homo sapiens, UniProt P13807); test: In vitro GS activity assay; assay type: biochemical; conditions: 50 μM; unpaired t-tests, p<0.05
T1 sequence (P13807 1-737): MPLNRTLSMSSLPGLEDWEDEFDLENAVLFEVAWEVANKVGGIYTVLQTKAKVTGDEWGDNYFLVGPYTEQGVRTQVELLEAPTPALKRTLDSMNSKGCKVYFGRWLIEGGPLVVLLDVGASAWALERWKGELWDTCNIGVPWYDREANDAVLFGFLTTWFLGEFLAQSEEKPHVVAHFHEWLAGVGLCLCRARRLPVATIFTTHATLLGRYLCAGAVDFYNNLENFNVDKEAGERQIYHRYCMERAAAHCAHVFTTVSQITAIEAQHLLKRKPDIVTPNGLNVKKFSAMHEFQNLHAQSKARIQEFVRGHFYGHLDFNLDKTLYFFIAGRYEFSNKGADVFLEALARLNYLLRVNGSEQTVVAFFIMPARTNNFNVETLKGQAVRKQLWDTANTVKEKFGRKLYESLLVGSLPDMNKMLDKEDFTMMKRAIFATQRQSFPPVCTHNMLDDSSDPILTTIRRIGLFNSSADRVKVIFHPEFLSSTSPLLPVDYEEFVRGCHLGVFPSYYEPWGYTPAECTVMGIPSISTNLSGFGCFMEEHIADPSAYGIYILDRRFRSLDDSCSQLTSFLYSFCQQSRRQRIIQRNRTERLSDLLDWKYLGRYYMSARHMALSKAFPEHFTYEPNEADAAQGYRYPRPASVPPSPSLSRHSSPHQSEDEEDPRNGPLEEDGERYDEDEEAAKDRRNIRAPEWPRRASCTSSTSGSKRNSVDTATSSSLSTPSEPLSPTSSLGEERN
Procedure: The reaction was carried out in 96-well plates containing 50 μl of reaction volume (50 mM Tris, pH8, 20 mM EDTA, 25 mM KF, 2 mg/ml glycogen, 10 mM Glucose-6-Phosphate, 1.65 mM UDP[14C]glucose and 100 mM UDP-glucose). To test the inhibitory effect of the hits, each one was included in the reaction at a final concentration of 50 μM. The reaction was initiated with the addition of 20 nM recombinant human GS1, followed by incubation at 37° C. for 30 min. The reaction was then stopped with the addition of 100 μl cold 100% ethanol, and the total suspension was transferred into a 96-well filter plate. Vacuum was applied to remove the ethanol. Five washing steps with 150 μl of cold 66% ethanol then fully removed any non-incorporated UDP[14C]glucose, while the labelled glycogen stayed on the well filters. The plate was dried at 37° C. incubator for 30 min. 50 μl of scintillation fluid was added to each well and the plate was read for 14C signal on Microplate scintillation and luminescence counter Top Count (Perkin Elmer).

Structure (SMILES)	dose response of diastase resistant cell associated mean PAS intensity normalized by z-score [1]	effect on GS activity (direction of change) (recombinant human GS1)
O=C(CN1CCOC1=O)N1CC[C@@H](c2ccc3ccccc3c2)[C@H](O)C1 (relative stereo) [UDP #5, 3-{2-[(3S*,4S*)-3-hydroxy-4-(2-naphthyl)piperidin-1-yl]-2-oxoethyl}-1,3-oxazolidin-2-one]	concentration dependent	–
Cc1ccc2c(c1)c(CNC(=O)c1ccccc1C1CCNC1)nn2C (centres unmarked) [UDP #10, N-[(1,5-dimethyl-1H-indazol-3-yl)methyl]-2-(3-pyrrolidinyl)benzamide]	lowered mean normalized PAS intensity in a non-dose responding manner	except for compound #10, have significantly changed GS activity
O=C(c1ccoc1)N1CCOc2c(O)cc(-c3cccc(Cl)c3)cc2C1 [UDP #12, 7-(3-chlorophenyl)-4-(3-furoyl)-2,3,4,5-tetrahydro-1,4-benzoxazepin-9-ol]	concentration dependent	increasing
CC(C)CCN1CCNC(=O)C1CC(=O)N1CCc2[nH]nc(C3CC3)c2C1 (centres unmarked) [UDP #3, 3-[2-(3-cyclopropyl-1,4,6,7-tetrahydro-5H-pyrazolo[4,3-c]pyridin-5-yl)-2-oxoethyl]-4-(3-methylbutyl)-2-piperazinone]	lowered mean normalized PAS intensity in a non-dose responding manner	–
CC(C)(C)c1ccc(O)c(-n2cnnc2)c1 [UDP #14, 4-tert-butyl-2-(4H-1,2,4-triazol-4-yl)phenol]	concentration dependent	–
CCc1ccc(CN(C)C(=O)c2ccc3c(c2)no[n+]3[O-])nc1 [UDP #11, N-[(5-ethylpyridin-2-yl)methyl]-N-methyl-2,1,3-benzoxadiazole-5-carboxamide 1-oxide]	concentration dependent	–
Cn1nc(-c2cccs2)cc1C(=O)N1[C@@H]2CC[C@H]1CNC(=O)C2 (relative stereo) [UDP #9, (1S*,6R*)-9-{[1-methyl-3-(2-thienyl)-1H-pyrazol-5-yl]carbonyl}-3,9-diazabicyclo[4.2.1]nonan-4-one]	lowered mean normalized PAS intensity in a non-dose responding manner	–
CC(C)n1ccnc1CN1CCC(c2[nH]ncc2-c2cccc(F)c2)CC1 [UDP #6, 4-[4-(3-fluorophenyl)-1H-pyrazol-5-yl]-1-[(1-isopropyl-1H-imidazol-2-yl)methyl]piperidine]	concentration dependent	increasing
CCO[C@H]1COC[C@@H]1NC(=O)Cc1c(C)nc(N)nc1C (relative stereo) [UDP #13, 2-(2-amino-4,6-dimethylpyrimidin-5-yl)-N-[(3S*,4R*)-4-ethoxytetrahydrofuran-3-yl]acetamide]	concentration dependent	–
CC1CCC(=O)N1c1ccc(-n2cnnc2)cc1 (centres unmarked) [UDP #8, 5-methyl-1-[4-(4H-1,2,4-triazol-4-yl)phenyl]pyrrolidin-2-one]	concentration dependent	increasing
Oc1ccc(-c2cc(NCc3cccnc3)nc3[nH]ccc23)c(F)c1 [UDP #1, 3-fluoro-4-{6-[(pyridin-3-ylmethyl)amino]-1H-pyrrolo[2,3-b]pyridin-4-yl}phenol]	lowered mean normalized PAS intensity in a non-dose responding manner	–
Cc1nc(C(C)C)cc(N2CCN(Cc3ncccc3C)CC2)n1 [UDP #7, 4-isopropyl-2-methyl-6-{4-[(3-methylpyridin-2-yl)methyl]piperazin-1-yl}pyrimidine]	lowered mean normalized PAS intensity in a non-dose responding manner	increasing
COc1ccc(-c2ncc(C)c(N)n2)c(C)c1 [UDP #16, 2-(4-methoxy-2-methylphenyl)-5-methylpyrimidin-4-amine]	lowered mean normalized PAS intensity in a non-dose responding manner	–
COc1cc(F)c(CN2CCN(c3cncc(C(N)=O)n3)CC2)c(F)c1 [UDP #2, 6-[4-(2,6-difluoro-4-methoxybenzyl)piperazin-1-yl]pyrazine-2-carboxamide]	concentration dependent	–
C1CCc2c(n[nH]c2CCNC2CCC3(CCNCC3)CC2)C1 [UDP #15]	concentration dependent	–
Cc1c(NC(=O)c2ccco2)cccc1C(=O)N1CCC2(CCCNC2)C1 (centres unmarked) [UDP #17, N-[3-(2,7-diazaspiro[4.5]dec-2-ylcarbonyl)-2-methylphenyl]-2-furamide]	concentration dependent	–
Cc1ccc(NC(=O)CCn2cnc(-c3ccccc3)c2C2CCOC2)c(C)c1 (centres unmarked) [UDP #18, N-(2,4-dimethylphenyl)-3-[4-phenyl-5-(tetrahydrofuran-3-yl)-1H-imidazol-1-yl]propanamide]	lowered mean normalized PAS intensity in a non-dose responding manner	increasing
